In patent US7879853B2, “4,6-disubstituted pyrimidines and their use as protein kinase inhibitors” (Bayer Schering Pharma AG, priority 2004, dated 2011):

Columns and labels:
GST-ΔPH-Akt1 = target: T1, GST-ΔPH-Akt1 (Homo sapiens, UniProt P31749); assay: Biochemical ΔPH Akt1 assay (flashplate, 33P-ATP, histone 2B); settings: GST-ΔPH-Akt1, histone 2B substrate, 100 nM ATP, 80 minutes at 30° C.; read-out: Akt inhibition: IC50 (inhibition of deltaPHAkt1)
T1 construct: named GST-deltaPH-Akt1; 107480aa; cloned in the pAcG1 vector; made in house; host or cells: SF9 insect cells (pAcG1 vector), co-expressed with PDK1
Source text: For the biochemical assay ΔPHAkt1 was used devoid of its PH domain as a GST fusion protein (named GST-deltaPH-Akt1; 107480aa; cloned in the pAcG1 vector (BD Biosciences Pharmingen)), co-expressed with PDK1 in SF9 insect cells. The protein was purified using glutathion-affinity chromatography by standard protocols.
In order to study the inhibition of Akt according to the invention, a flashplate-based assay has been developed.
The Akt1 assay is a biochemical assay using Akt1 devoid of its PH domain and co-expressed with PDK1 in insect cells. The GST-ΔPH-Akt1 assay is run in 96 well plates by incubating 100 ng/well GST-ΔPH-Akt1, 100 ng/well histone 2B (Roche, #223514) as substrate, 10 μl of compound of invention (test compounds were dissolved as 10 mM solutions in dimethylsulfoxide (DMSO) and subsequently diluted) and 100 nM ATP (including ^33P-ATP) in 100 μl of reaction buffer ([…], pH7.5; 3 mM MgCl2; 3 mM MnCl2; 3 μM Na-Orthovanadat; 1 mM DTT; 1 μg/ml PEG8000) for 80 minutes at 30° C. The reactions are terminated by adding 100 μl stopping buffer (2% H3PO4 for 5 minutes) and are washed 3 times by using washing buffer (0.9% NaCl). Relying on the incorporation of ^33P into the protein substrate histone 2B, the detection is based on the adhesion of the phosphorylated protein to the surface of scintillator-coated flash plates (NEN, USA; #SMP-200). This phosphorylation is measured by counting the plate for 60 sec. using a plate reader (Wallac Microbeta; Perkin Elmer, USA). The analysis of the data is performed using a biostatistical program (GraphPad Prism, USA).

[1] = target: T2, Akt1 (full-length Akt1, active) (Homo sapiens, UniProt P31749); assay: Biochemical Akt1 (active) assay (full-length Akt1), flashplate, Crosstide; settings: Crosstide substrate, 100 nM ATP, 60 minutes at 30° C.; read-out: Akt1 inhibition (full-length Akt1, active): IC50
T2 construct: recombinant full-length human Akt1, containing N-terminal His6 tag; His6 (N); GST (alternative statement of the assay paragraph) (N); purchased Upstate, UK #14-276; host or cells: baculovirus infected Sf21 insect cells
Source text: For the biochemical Akt1 assay recombinant full-length human Akt1, containing N-terminal His6 tag was cloned and expressed in baculovirus infected Sf21 insect cells. Akt1 is activated with GST-MAPKAP-K2 and PDK1, and repurified on Ni2+/NTA-agrose and glutathioneagarose (Upstate, UK; #14-276).
In order to study the inhibition of Akt1 (full-length version) according to the invention, a flashplate-based assay has been developed.
The full-length Akt1 assay is a biochemical assay using Akt1 N-terminally fused to GST and co-expressed with PDK1 in insect cells. The Akt1 assay is run in 96 well plates by incubating 500 ng/well GST-Akt1, 1 μM Crosstide (N-terminally biotinylated synthetic peptide (KGSGSGRPRTSSFAEG) Upstate, #12-385) as substrate, 10 μl of test compound (test compounds were dissolved as 10 mM solutions in dimethylsulfoxide (DMSO) and subsequently diluted) and 100 nM ATP (including ^33P-ATP) in 100 μl of reaction buffer (50 mM HEPES, pH7.5; 3 mM MgCl2; 3 mM MnCl2; 3 μM Na-Orthovanadat; 1 mM DTT; 1 μg/ml PEG8000) for 60 minutes at 30° C. in 96 well microtiter plates. The reactions are terminated by adding 100 μl stopping buffer (5M NaCl, 35 mM EDTA pH 8,0) for 5 minutes. 190 μl of the reaction mixture are transferred into streptavidin-coated Flashplates (Perkin Elmer, #SMP-103) and incubated for further 30 minutes at room temperature. The plates are washed 3 times by using washing buffer (0.9% NaCl). Relying on the incorporation of ^33P into the peptide substrate crosstide, the detection is based on the specific binding of the biotinylated peptide to the streptavidin-coated surface of scintillator-coated flash plates (NEN, USA; #SMP-103). This phosphorylation is measured by counting the plate for 60 sec. using a plate reader (Wallac Microbeta; Perkin Elmer, USA). The analysis of the data is performed using a biostatistical program (GraphPad Prism, USA).

[2] = target: T3, Akt1 (full-length Akt1, inactive) (Homo sapiens, UniProt P31749); assay: Biochemical Akt1 (inactive) assay (full-length Akt1), IMAP, PDK1-dependent activation; settings: activation by PDK1 with PIP3 vesicles, 50 μM ATP, 60 min. at room temperature; read-out: Inhibition of Akt1 activation (full-length Akt1, inactive): IC50
T3 construct: recombinant full-length human Akt1 a containing N-terminal His6 tag; His6 (N); purchased Upstate, UK #14-279; host or cells: baculovirus infected Sf21 insect cells
Method: The enzyme is purified using Ni2+/NTA-agarose (Upstate, UK; #14-279).
The enzyme is purified using Ni2+/NTA-agarose.
PDK1-dependent activation and subsequent enzymatic activity of Akt1: Activity of purified human Akt1 is routinely measured in an assay in which the enzyme is first activated by PDK1 in the presence of phosphatidylinositol-3,4,5-triphosphate (PIP3). Once activated, Akt1-dependent phosphorylation of a fluorescence labelled peptide substrate is measured by fluorescence polarisation using the IMAP technology (Molecular Devices).
The phospholipids are prepared as follows: 5 mg DOPC/DOPS are solved in 200 μl 10 mM Tris (pH 7.4) and 300 μg PIP3 are resuspended in 950 μl 10 mM Tris (pH 7.4) by pipetting. 950 μl solved PIP3 are mixed with 50 μl solved DOPC/DOPS and incubated for 2 h at a temperature below 20° C. Then the mixture is subjected to sonification for 30 min. at max. power until a translucent phopholipid vesicle preparation is obtained. Aliquots of the vesicle suspension are frozen at −80° C. until needed, likewise the solved DOPC/DOPS.
Assays are performed in 384-well plates. Incubations are carried out for 60 min. at room temperature. The reaction buffer mixture contains in a final volume of 25 μl: 10 mM Tris pH 7.4, 10 mM MgCl2. 1 mM DTT, and 0,1 mg/ml BSA. In contrast the activation buffer contains: 50 ng/well Akt1, 20 ng/well PDK1, 1.25 μM peptide substrat, 50 μM ATP, and phospholipid vesicles (1:20). Test compounds are added from stock solutions in DMSO before activation of Akt1 by PDK1. After the incubation the beads (IMAP binding reagent; Molecular Devices; 1:167) are added and the fluorescence polarization is measured (excitation 485 nm, emission 530 nm). The analysis of the data is performed using a biostatistical program.

MCF7 cells = assay: Cellular proliferation/cytotoxicity assay (Alamar Blue), MCF7; type: cell-based; settings: Homo sapiens; MCF7, 48 hours, Alamar Blue (Resazurin); read-out: Anti-proliferative/cytotoxic activity: IC50 MCF7
Method: (§1) The anti-proliferative activity of the compounds as described herein, is evaluated using MCF7 and MDA-MB-468 (ATCC HTB-22 and HTB-132) cell lines and the Alamar Blue (Resazurin) cell viability assay (O'Brien et al. Eur J Biochem 267, 5421-5426, 2000). Resazurin is reduced to the fluorescent rescrufin by cellular dehydrogenase activity, correlating with viable, proliferating cells. Test compounds are dissolved as 10 mM solutions in DMSO and subsequently diluted. MCF7 or […] cells were seeded into 96 well flat bottom plates at a density of 10000 cells/well (MCF7) or 5000 cells/well (MDA-MB-468) in a volume of 200 μl/well. 24 hours after seeding, 1 μl each of the compound dilutions are added into each well of the 96 well plates. Each compound dilution is tested as at least as duplicates. Wells containing untreated control cells were filled with 200 μl DMEM containing 0.5% v:v DMSO. The cells are then incubated with the substances for 48 hours at 37° C. in a humidified atmosphere containing 5% carbon dioxide. To determine cell viability, 20 μl of a Resazurin solution (Sigma; 90 mg/l) are added. After 4 hours incubation at 37° C. the fluorescence is measured at an extinction of 544 nm and an emission of 590 nm (Wallac Victor2; Perkin Elmer, USA). For the calculation of the cell viability the emission value from untreated cells is set as 100% viability and the emission rates of treated cells are set in relation to the values of untreated cells. Viabilities are expressed as % values. The corresponding IC50 values of the compounds for cytotoxic activity are determined from the concentration-effect curves by means of non-linear regression. The analysis of the data is performed using a biostatistical program (GraphPad Prism, USA).

MDA-MB-468 cells = assay: Cellular proliferation/cytotoxicity assay (Alamar Blue), MDA-MB-468; type: cell-based; settings: Homo sapiens; MDA-MB-468, 48 hours, Alamar Blue (Resazurin); read-out: Anti-proliferative/cytotoxic activity: IC50 MDA468
Method: as §1

T2 sequence (P31749 whole entry): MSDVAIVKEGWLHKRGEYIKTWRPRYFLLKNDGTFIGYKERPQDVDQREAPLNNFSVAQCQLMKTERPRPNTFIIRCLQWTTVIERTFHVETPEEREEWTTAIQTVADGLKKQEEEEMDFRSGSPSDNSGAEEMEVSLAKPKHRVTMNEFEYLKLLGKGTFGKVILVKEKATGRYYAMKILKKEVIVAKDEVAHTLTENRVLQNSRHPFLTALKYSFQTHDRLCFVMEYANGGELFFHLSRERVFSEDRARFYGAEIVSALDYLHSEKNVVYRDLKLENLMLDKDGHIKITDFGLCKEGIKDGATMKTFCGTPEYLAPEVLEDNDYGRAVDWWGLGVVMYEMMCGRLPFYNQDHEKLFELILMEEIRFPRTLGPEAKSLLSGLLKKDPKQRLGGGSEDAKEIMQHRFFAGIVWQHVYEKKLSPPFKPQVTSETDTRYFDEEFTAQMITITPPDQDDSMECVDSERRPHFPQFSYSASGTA
T3 sequence (P31749 whole entry): as above
T1 sequence (P31749 107-480 limits assumed, stated change not applied): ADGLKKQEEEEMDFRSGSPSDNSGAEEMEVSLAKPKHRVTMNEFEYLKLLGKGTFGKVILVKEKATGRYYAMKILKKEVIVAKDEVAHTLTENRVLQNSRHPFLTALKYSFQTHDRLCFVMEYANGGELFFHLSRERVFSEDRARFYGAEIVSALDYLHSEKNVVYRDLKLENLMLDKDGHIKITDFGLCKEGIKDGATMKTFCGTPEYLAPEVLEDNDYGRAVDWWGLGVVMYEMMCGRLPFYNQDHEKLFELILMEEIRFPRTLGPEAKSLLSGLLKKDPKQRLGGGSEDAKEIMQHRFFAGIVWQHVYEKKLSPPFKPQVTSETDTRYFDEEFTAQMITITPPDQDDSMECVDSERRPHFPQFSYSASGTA

IC50 (GST-ΔPH-Akt1) [µM] | IC50 [1] [µM] | IC50 [2] [µM] | melting point [°C] | SMILES | IC50 (MCF7 cells) [µM] | IC50 (MDA-MB-468 cells) [µM]
≤ 5 | ≤ 1.75 | ≤ 4.4 | 114 | NCc1ccc(C(=O)Nc2cccc(Nc3cc(-c4cccc5c4oc4ccccc45)ncn3)c2)cc1.O=C(O)C(F)(F)F [Compound 57, 4-Aminomethyl-N-[3-(6-dibenzofuran-4-yl-pyrimidin-4-ylamino)-phenyl]-benzamid trifluoroacetate] |  | 
 | ≤ 1.75 | ≤ 4.4 | 155 to 165 | NCc1ccc(C(=O)Nc2ccc(Nc3cc(-c4cccc5c4oc4ccccc45)ncn3)cc2)cc1.O=C(O)C(F)(F)F [Compound 49, 4-Aminomethyl-N-[4-(6-dibenzofuran-4-yl-pyrimidin-4-ylamino)-phenyl]-benzamide trifluoroacetate] | ≤ 16.6 | ≤ 6.05
 | ≤ 1.75 |  | 183 to 186 | NCc1cccc(C(=O)Nc2ccc(Nc3cc(-c4cccc5c4oc4ccccc45)ncn3)cc2)n1 [Compound 73, 6-Aminomethyl-pyridin-2-carbonsäure-[4-(6-dibenzofuran-4-yl-pyrimidin-4-ylamino)-phenyl]-amide] |  | 
